Experimental data: patent US7985745B2, “Method for pain treatment” (Abbott Laboratories, priority 2006, dated 2011)
Read-outs that look alike come from different tables or passages of the source. Each block holds one compound with its values, some of them ahead of it.

Tests used:
histamine H4 receptor [1] = target: T1, histamine H4 receptor (Homo sapiens, UniProt Q9H3N8); assay: 3H-histamine competition binding assay, membranes of transfected HEK-293 cells
T1 construct: expressed in transfected cells; host or cells: HEK-293 cells, transient transfection with pCINeo vector; membranes
Procedure: In this assay, membranes were prepared from HEK-293 cells transiently transfected with the pCINeo expression vector harboring the histamine H4 receptor by homogenization of the cells on ice in TE buffer (50 mM Tris-HCl buffer, pH 7.4, containing 5 mM EDTA), 1 mM benzamidine, 2 μg/ml aprotinin, 1 μg/ml leupeptin, and 1 μg/ml pepstatin. The homogenate was centrifuged at 40,000 g for 20 minutes at 4° C. This step was repeated, and the resulting pellet was resuspended in TE buffer. Aliquots were frozen at −70° C. until needed. On the day of assay, membranes were thawed and diluted with TE buffer. Competition radioligand binding assays were performed with increasing concentrations of test compound in the presence of [^3H]-histamine incubated at 25° C. for 1 h in a total volume of 0.5 ml of 50 mM Tris, 5 mM EDTA, pH 7.4. All binding reactions were terminated by filtration under vacuum onto polyethylenimine (0.3%) presoaked Unifilters (PerkinElmer Life Sciences) or Whatman GF/B filters (Whatman, Clifton, N.J.) followed by three brief washes with 4 ml of ice-cold TE buffer. Bound radiolabel was determined by liquid scintillation counting. For all of the radioligand competition binding assays, IC50 values and Hill slopes were determined by Hill transformation of the data and Ki values were determined by the Cheng-Prusoff equation.

thermal hyperalgesia = assay: Complete Freund's adjuvant-induced thermal hyperalgesia; format: in vivo, rat; conditions: 30 minutes before testing, 48 hours after CFA, thermal stimulus
Procedure: To assess the effectiveness of representative compounds of the invention against hyperalgesia, animals were tested in an acute model of adjuvant-induced thermal hyperalgesia (see for example, Honore, et al. Behavioural Brain Research 167 (2006) 355-364; Carroll, et al. US Patent application US 2006/0025614A 1). To prepare animals for the model, a solution of Complete Freund's adjuvant (150 microliters of a 50% aqueous solution, Sigma Chemical Company, St. Louis, Mo.) was injected into the plantar surface of test paw of the animal (rat). Rats so injected develop a hyperalgesia to thermal stimulation which is assessed 48 hours after injection of the Complete Freund's adjuvant using a commercially available paw thermal stimulator (UARDG, Dept. of Anesthesiology, Univ. California at San Diego, La Jolla, Calif.). For testing, rats were placed individually in a so-called ‘hot box’ (i.e. Plexiglass cubicles mounted on a glass surface) maintained at 30° C., and allowed a 30 minute habituation period. A thermal stimulus, in the form of radiant heat emitted from a focused projection bulb, was then applied to the plantar surface of each hind paw. The stimulus current was maintained (e.g. at 4.5 Amp) and the time of exposure set to limit the extent of possible tissue damage (e.g. maximum of 20 seconds exposure to thermal heating from the projection bulb). The time (in seconds) for the withdrawal of the paw that was injected with the Complete Freund's adjuvant (CFA) and subjected to the thermal stimulus was recorded, and this was compared to the time (in seconds) for withdrawal of the uninjected paw subjected to the same thermal stimulus. […] To test the effect of a compound on the hyperalgesia, the test compound is dissolved in a vehicle (e.g. water or saline) and administered by i.p. (intraperitoneal) injection 30 minutes before the testing of the animal's response to the thermal stimulus to the paws. The antihyperalgesic activity of the compound in blocking the pain is shown by an increase in the time to withdraw the CFA-injected paw subjected to thermal stimulus. Experiments are done with single-dose and escalating-dosages of the test compound, and dose response curves constructed to determine ED50 values.

histamine H4 receptor [2] = target: T1, histamine H4 receptor; assay: FLIPR Ca2+ assay in HEK-293 cells stably expressing histamine H4 receptor and Gαqi5; format: cell-based; conditions: Kb for antagonists and inverse agonists, EC50 for partial agonists; block of histamine-induced Ca2+ increase
Description: Histamine H4 receptors from mammalian species have been cloned. Methods to clone, express, and assess the potency and functional activity of such cloned genes are well known to those skilled in the art of molecular biology. […] Before testing, cells are loaded with a Ca^+2 sensitive fluorescent dye, in this case Fluo-4. In the case of partial agonist or agonist ligands, addition of compound to the cells leads to the increase in intracellular Ca^+2 which is detected by FLIPR (Fluorescence Imaging Plate Reader; Molecular Devices, Sunnyvale, Calif.) technology. […] The fluorescence intensities measured before addition of the test compound are subtracted from the fluorescence intensities at later time points. Peak response values determined at each concentration of ligand are expressed as a percentage of the response obtained with the full agonist histamine. Concentration versus response data are analyzed to obtain compound potency as Kb values for antagonists and inverse agonists and as EC50 values for partial agonists.

inflammatory pain = assay: Carrageenan-induced thermal hyperalgesia, hotbox assay; format: in vivo; conditions: 90 minutes after carrageenan, tested 30 minutes after dosing
Procedure: To assess the effectiveness of representative compounds of the invention against acute model inflammatory pain, animals were tested in an acute model of carrageenan-induced thermal hyperalgesia (see for example, Honore, et al. Behavioural Brain Research 167 (2006) 355-364; Porreca, et al. Journal of Pharmacology and Experimental Therapeutics (2006) vol. 318 pp. 195-205). Carrageenan was injected into the test paw of the animal, and after 90 minutes, the test drug was administered by intraperitoneal dosing. The effect on thermal hyperalgesia was assessed in a hotbox assay which was done 30 minutes after the intraperitoneal dosing of the test drug, and the MPE (maximal percent effect) reported by comparison to the control paw (not injected with carrageenan), according to 100 times the withdrawal latency of the carrageenan injected paw (in seconds) divided by the withdrawal latency of the control (not injected with carrageenan) paw.

osteoarthritis pain = assay: MIA-induced knee joint osteoarthritis model, hind limb grip force; format: in vivo, rat; conditions: 100 micromole/kg i.p.; grip force 20 days after MIA; % return to normalcy vs naïve group
Procedure: Unilateral knee joint osteoarthritis was induced in rats by a single intra-articular (i.a.) injection of sodium monoiodoacetate (MIA) (Sigma-Aldrich, St. Louis, Mo.) (3 mg in 50 ul sterile isotonic saline) into the right knee joint cavity under light (1-3%) isoflurane anesthesia.
Pain behavior was assessed by measurement of hind limb grip force (GF) in adult osteoarthritic rats. Following the unilateral injection of MIA (male Sprague Dawley, 325-350 g, tested at 20 days following MIA injection), a behavioral measure of activity-induced pain was carried out. Measurements of the peak hind limb grip force were conducted by recording the maximum compressive force (CFmax), in grams of force, exerted on a hind limb strain gauge setup, in a commercially available grip force measurement system (Columbus Instruments, Columbus, Ohio).
During testing, each rat was gently restrained by grasping it around its rib cage and then allowed to grasp the wire mesh frame attached to the strain gauge. The experimenter then moved the animal in a rostral-to-caudal direction until the grip was broken. Each rat was sequentially tested twice at approximately 2-3 min interval to obtain a raw mean grip force (CFmax). This raw mean grip force data was in turn converted to a maximum hindlimb cumulative compressive force (CFmax), as the grams of force/kg of body weight, for each animal.
For evaluating the compound effects, the hind limb grip force was conducted 20 days following the intra-articular injection of MIA. A group of age-matched naïve (not injected with MIA) animals was added as a comparator to the drug-dosed groups. The vehicle control response for each group of MIA-treated animals was defined as the 0% response (0% effect), whereas the naïve control group was defined as the normal response and as 100% effect. The % effects for each dose group was expressed as % return of response to normalcy, compared to the naïve group. That is, the % effect=(Treatment CFmax−Vehicle CFmax)/[…]]×100). All experiments evaluating drug effects in this model were conducted in a randomized blinded fashion.

[3] = tested on: mechanical allodynia after skin incision; assay: Surgical skin incision model, mechanical allodynia by von Frey hair; format: in vivo, rat
Procedure: This is a surgical skin incision model (Joshi, et al. Pain 123 (2006) 75-82). Animals (rats) were prepared for testing by subjecting them to a surgical procedure carried out under sterile conditions, where the plantaris muscle was elevated and incised longitudinally with the origin and insertion of the muscle remaining intact. The skin was then closed with two mattress sutures (e.g. 5-0 nylon sutures). After surgery, animals were allowed to recover on a warming plate and housed individually in cages with soft bedding. […] Animals were tested for mechanical allodynia using von Frey hair mechanical stimulation 2, 24, and 48 h after surgery as described for the Chung model.

neuropathic pain = assay: Chung model: L5/L6 spinal nerve ligation, mechanical allodynia by von Frey filaments; format: in vivo, rat; conditions: 100 micromole/kg i.p., 30 minutes before testing
Procedure: Animals were prepared for testing, by use of a surgical procedure that induces neuropathic pain in one paw. Male Sprague Dawley rats were purchased from Charles River (Portage, Mich.). Prior to surgery, animals were housed in groups and maintained in a temperature-regulated environment. Following nerve ligation surgery, animals were housed in groups, and had access to food and water ad libitum.
The L5 and L6 spinal nerves of anesthetized rats were tightly ligated in a manner described previously (see Kim and Chung, Pain (1992) vol. 50 pp. 355-363). An incision was made on the dorsal portion of the hip and the muscle was blunt-dissected to reveal the spinal processes. The L6 transverse process was removed, and the left side L5 and L6 spinal nerves were tightly ligated with 5.0 braided silk suture. The wound was cleaned, the membrane sewn with 4.0 dissolvable Vicryl suture and the skin closed with wound clips. The paw affected by the surgical procedure (the left paw) develops an allodynic response, a hypersensitivity to mechanical and other stimuli; neuropathic pain is assessed as an increased sensitivity in the surgically affected (left) allodynic paw compared to the control paw on the right side, and measured by comparing the response of the (left side) allodynic paw to the response of the unaffected right side control paw.
For the assessment of neuropathic pain, mechanical allodynia in the affected paw of animals that had undergone spinal nerve ligation was evaluated using testing with von Frey filaments. As described previously by S. R. Chaplan, et al (“Quantitative assessment of tactile allodynia in the rat paw” J. Neurosci. Meth. (1994) vol. 53 pp. 55-63), two weeks following surgery rats were acclimated to a testing box constructed of plexiglass with a wire mesh floor which allowed access to the plantar surface of the animal's hindpaws. Using an Up-Down method (Dixon, Annual Rev. Pharmacol. Toxicol. (1980) vol. 20, pp. 441-462; Chaplan et al. “Quantitative assessment of tactile allodynia in the rat paw” J. Neuroscience Methods (1994) vol. 53 pp. 55-63), von Frey filaments of increasing stiffness were applied to the plantar surface of the hindpaws and the withdrawal response of the animals was observed; for the surgically affected paw with neuropathic pain (the left side paw) the baseline level of allodynia has a withdrawal threshold of ≦4 g of pressure. By comparison, for the control paw without allodynia (in this case the right side paw), the typical withdrawal pressure is around 15 g. Representative compounds of the invention, administered intraperitoneally 30 minutes before testing, are able to reduce the symptoms of neuropathic pain and induce a dose-dependent increase in the withdrawal threshold for allodynic (left side) limb, up to a maximum effect of 15 g. The efficacy of the compound in reducing neuropathic pain at different doses is determined by comparing response in the surgery-affected paw versus the response in the control paw. This is expressed as the MPE (maximum percent effect), or 100 times the withdrawal threshold of the allodynic (left side) divided by the withdrawal threshold of the control (right side).

[4] = displacement of [3H]-histamine, 25° C., 1 h, read-out: Potency in Competition Binding Assay

melting point: 175 to 178 °C (dec.)
Ki (histamine H4 receptor [1]; [4]): 178 nM
Potency in the FLIPR assay (histamine H4 receptor [2]): 200 nM
SMILES: CN1CCN(c2cc(-c3cccnc3)nc(N)n2)CC1.O=C(O)/C=C\C(=O)O [Example 2, 4-(4-Methylpiperazin-1-yl)-6-(pyridin-3-yl)pyrimidin-2-amine, maleate]
MPE (thermal hyperalgesia; 30 micromole/kg i.p.): 51%
MPE (thermal hyperalgesia; 100 micromole/kg i.p.): 83%

SMILES: O=S(=O)(NCCc1c[nH]cn1)NCc1ccc(Cl)c(Cl)c1 [Example 7, Sulfamide, N-[(3,4-dichlorophenyl)methyl]-N′-[2-(1H-imidazol-4-yl)ethyl]-]
MPE (inflammatory pain; 3 micromole/kg i.p.): 33%
MPE (inflammatory pain; 10 micromole/kg i.p.): 42%
MPE (inflammatory pain; 30 micromole/kg i.p.): 93%
% Effect (osteoarthritis pain): 22%
Ki (histamine H4 receptor [1]): 33 nM
Potency in the FLIPR assay (histamine H4 receptor [2]): 34 nM
MPE ([3]; 3 micromole/kg i.p.): 33%
MPE ([3]; 10 micromole/kg i.p.): 50%

SMILES: Nc1nc2c(c(N3CC[C@@H](N)C3)n1)CCCc1ccccc1-2 [Example 4, 4-((3R)-3-Amino-pyrrolidin-1-yl)-6,7-dihydro-5H-benzo[6,7]cyclohepta[1,2-d]pyrimidin-2-ylamine]
MPE (inflammatory pain; 100 micromole/kg i.p.): 68%
MPE (neuropathic pain): 47%

Ki (histamine H4 receptor [1]; [4]): 80 nM
Potency in the FLIPR assay (histamine H4 receptor [2]): 15 nM
SMILES: Nc1nc2c(c(N3CCNCC3)n1)CCCc1ccccc1-2 [Example 5, 4-piperazin-1-yl-6,7-dihydro-5H-benzo[6,7]cyclohepta[1,2-d]pyrimidin-2-ylamine]
MPE (inflammatory pain; 100 micromole/kg i.p.): 23%
MPE (neuropathic pain): 28%
